The results in this text go back to US20240342292A1, “Compounds for the Degradation of EGFR Kinase” (BeiGene Switzerland GmbH, priority 2021, published 2024).

In one test the target is T1, L858R/T790M/C797S EGFR (Homo sapiens, UniProt P00533, C797S/L858R/T790M).
T1 construct: expressed in transfected cells; host or cells: H1975 clone #25 (lentiviral over-expression, endogenous EGFR knocked out by sgRNA)
Briefly: EGFR degradation HTRF assay in H1975-clone #25 (LTC) cells. It is filed as cell-based. To be noted: 16h treatment; for DC50: H1975 # 25-LTC (L858R/T790M/C797S), HTRF; for Dmax: NCI-H1975, H1975 # 25-LTC (L858R/T790M/C797S), maximum percentage of degradation. A digest of the protocol: (§1)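 DC50 from a four-parameter fit of HTRF signal. H1975 mutant-EGFR clones with endogenous EGFR knocked out; 16 h treatment, 10 uM top, 5-fold × 8.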
Background: In TR-FRET formats the signal depends on donor and acceptor labels being close together.

In a further test the test system is Del19/T790M/C797S EGFR. Briefly: EGFR degradation HTRF assay in H1975-clone #28 (DTC) cells. It is filed as cell-based. The following applies: H1975 # 28 DTC (Del19/T790M/C797S), 16h treatment; for DC50: HTRF; for Dmax (%): maximum percentage of degradation. A digest of the protocol: as §1

T1 sequence (P00533 25-1210 T790M/C797S/L858R): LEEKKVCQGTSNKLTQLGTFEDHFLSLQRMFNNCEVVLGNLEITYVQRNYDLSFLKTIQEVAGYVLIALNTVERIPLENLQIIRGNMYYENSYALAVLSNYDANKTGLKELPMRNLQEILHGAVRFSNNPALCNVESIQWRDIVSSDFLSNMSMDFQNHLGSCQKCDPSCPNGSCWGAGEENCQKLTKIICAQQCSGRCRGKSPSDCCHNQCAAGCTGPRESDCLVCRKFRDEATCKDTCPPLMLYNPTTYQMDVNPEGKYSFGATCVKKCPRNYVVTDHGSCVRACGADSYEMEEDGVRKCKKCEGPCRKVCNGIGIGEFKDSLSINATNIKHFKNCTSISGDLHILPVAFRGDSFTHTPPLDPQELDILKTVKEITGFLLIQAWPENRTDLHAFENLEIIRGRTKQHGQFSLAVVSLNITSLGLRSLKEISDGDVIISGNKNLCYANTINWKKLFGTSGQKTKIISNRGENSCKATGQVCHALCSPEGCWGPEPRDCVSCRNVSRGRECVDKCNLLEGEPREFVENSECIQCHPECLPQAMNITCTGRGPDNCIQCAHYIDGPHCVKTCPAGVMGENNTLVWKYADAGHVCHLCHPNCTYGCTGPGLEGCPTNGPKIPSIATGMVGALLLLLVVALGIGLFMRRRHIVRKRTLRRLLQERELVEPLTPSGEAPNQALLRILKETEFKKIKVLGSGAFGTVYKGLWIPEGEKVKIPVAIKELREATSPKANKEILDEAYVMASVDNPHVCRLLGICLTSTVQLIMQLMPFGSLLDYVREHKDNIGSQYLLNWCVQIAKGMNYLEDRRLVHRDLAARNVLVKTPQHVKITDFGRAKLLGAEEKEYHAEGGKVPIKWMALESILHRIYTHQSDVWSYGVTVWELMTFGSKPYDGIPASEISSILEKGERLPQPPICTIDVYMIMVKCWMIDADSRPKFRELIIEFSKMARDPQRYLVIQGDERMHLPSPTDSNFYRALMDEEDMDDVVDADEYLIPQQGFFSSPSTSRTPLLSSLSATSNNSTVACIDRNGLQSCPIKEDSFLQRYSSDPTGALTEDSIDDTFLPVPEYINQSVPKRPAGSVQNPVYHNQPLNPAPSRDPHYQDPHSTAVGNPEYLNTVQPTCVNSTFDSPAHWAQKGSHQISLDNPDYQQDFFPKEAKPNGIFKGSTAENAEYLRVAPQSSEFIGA

At L858R/T790M/C797S EGFR, `Cc1cc2cc(n1)-c1cnn(C)c1OCCC[C@@H](C)CN1/C(=N/C2=O)Nc2ccc(CN3CC4(C3)CN(C(=O)[C@@H]3CCN(c5cc(F)c([C@H]6CCC(=O)NC6=O)c(F)c5)C3)C4)cc21` [Example 78, (R)-3-(2,6-difluoro-4-((R)-3-(6-(((R,E)-1^1,2^6,7-trimethyl-3-oxo-5^2,5^3-dihydro-1^1H,5^1H-11-oxa-4-aza-5(2,1)-benzo[d]imidazola-2(2,4)-pyridina-1(4,5)-pyrazolacycloundecaphane-5^6-yl)methyl)-2,6-diazaspiro[3.3]heptane-2-carbonyl)pyrrolidin-1-yl)phenyl)piperidine-2,6-dione] had a DC50 of 0.5 nM and a maximal degradation (Dmax) of 90.2%. In the test with Del19/T790M/C797S EGFR, the DC50 turned out to be 0.7 nM and the “Dmax (%)” value is 82.6%.

For `Cc1cc2cc(n1)-c1cnn(C)c1OCCC[C@@H](C)CN1/C(=N/C2=O)Nc2ccc(C(=O)N(C)[C@H]3CCN(C4CN(c5cc(F)c([C@H]6CCC(=O)NC6=O)c(F)c5)C4)CC3(F)F)cc21` [Example 359, (R,E)-N—((S)-1-(1-(4-((R)-2,6-dioxopiperidin-3-yl)-3,5-difluorophenyl)azetidin-3-yl)-3,3-difluoropiperidin-4-yl)-N,1^1,2^6,7-tetramethyl-3-oxo-5^2,5^3-dihydro-1^1H,5^1H-11-oxa-4-aza-5(2,1)-benzo[d]imidazola-2(2,4)-pyridina-1(4,5)-pyrazolacycloundecaphane-5^6-carboxamide], on L858R/T790M/C797S EGFR, half-maximal degradation (DC50) was put at 0.841 nM and the Dmax is 87.1%. Further, in the test with Del19/T790M/C797S EGFR, it took 0.751 nM to reach half-maximal degradation (DC50) and the “Dmax (%)” value was 83.57%.

For the compound `COC[C@H]1CN(C2CCN(c3cc(F)c([C@H]4CCC(=O)NC4=O)c(F)c3)CC2)CCN1c1ccc2c(c1)N1C[C@H](C)CCCOc3c(cnn3C)-c3cc(cc(C)n3)C(=O)/N=C/1N2` [Example 385, (R)-3-(2,6-difluoro-4-(4-((R)-3-(methoxymethyl)-4-((R,E)-1^1,2^6,7-trimethyl-3-oxo-5^2,5^3-dihydro-1^1H,5^1H-li-oxa-4-aza-5(2,1)-benzo[d]imidazola-2(2,4)-pyridina-1(4,5)-pyrazolacycloundecaphane-5^6-yl)piperazin-1-yl)piperidin-1-yl)phenyl)piperidine-2,6-dione], at L858R/T790M/C797S EGFR, the 50% degradation concentration (DC50) was 2.63 nM and the Dmax worked out at 82.3%. Besides, in the test on Del19/T790M/C797S EGFR, the DC50 came to 1.58 nM and the “Dmax (%)” value is 63.01%.

On L858R/T790M/C797S EGFR, `Cc1cc2cc(n1)-c1cnn(C)c1OCCC[C@@H](C)CN1/C(=N/C2=O)Nc2ccc(CN3CCN(CC4CN(c5cc(F)c([C@H]6CCC(=O)NC6=O)c(F)c5)C4)CC3)c(C)c21` [Example 148, (R)-3-(2,6-difluoro-4-(3-((4-(((R,E)-1^1,2^6,5^7,7-tetramethyl-3-oxo-5^2,5^3-dihydro-1^1H,5^1H-11-oxa-4-aza-5(2,1)-benzo[d]imidazola-2(2,4)-pyridina-1(4,5)-pyrazolacycloundecaphane-5^6-yl)methyl)piperazin-1-yl)methyl)azetidin-1-yl)phenyl)piperidine-2,6-dione] registered a 50% degradation concentration (DC50) of 1.89 nM and a Dmax of 78.7%. In the test with Del19/T790M/C797S EGFR, the 50% degradation concentration (DC50) came out at 3.09 nM and the “Dmax (%)” value was determined as 70.93%.

Consider `Cc1cc2cc(n1)-c1cnn(C)c1OCCC[C@@H](C)CN1/C(=N/C2=O)Nc2ccc(C(=O)N(C)C3CCN(CCC4CN(c5cc(F)c([C@H]6CCC(=O)NC6=O)c(F)c5)C4)CC3)cc21` [Example 285, (R,E)-N-(1-(2-(1-(4-((R)-2,6-dioxopiperidin-3-yl)-3,5-difluorophenyl)azetidin-3-yl)ethyl)piperidin-4-yl)-N,1^1,2^6,7-tetramethyl-3-oxo-5^2,5^3-dihydro-1^1H,5^1H-11-oxa-4-aza-5(2,1)-benzo[d]imidazola-2(2,4)-pyridina-1(4,5)-pyrazolacycloundecaphane-5^6-carboxamide], for which, on L858R/T790M/C797S EGFR, the DC50 stood at 0.651 nM and the Dmax is 89.8%. Further, in the test with Del19/T790M/C797S EGFR, the DC50 stood at 0.667 nM and the “Dmax (%)” value amounted to 77.98%.

On L858R/T790M/C797S EGFR, `Cc1cc2cc(n1)-c1cnn(C)c1OCCC[C@@H](C)CN1/C(=N/C2=O)Nc2ccc(C(=O)N3CCN(C4CCN(c5cc(F)c([C@H]6CCC(=O)NC6=O)c(F)c5)CC4)CC3)cc21` [Example 303, (R)-3-(2,6-difluoro-4-(4-(4-((R,E)-1^1,2^6,7-trimethyl-3-oxo-5^2,5^3-dihydro-1^1H,5^1H-11-oxa-4-aza-5(2,1)-benzo[d]imidazola-2(2,4)-pyridina-1(4,5)-pyrazolacycloundecaphane-5^6-carbonyl)piperazin-1-yl)piperidin-1-yl)phenyl)piperidine-2,6-dione] came in with a DC50 of 0.582 nM and a Dmax of 80.9%. For the same compound, in the test with Del19/T790M/C797S EGFR, the 50% degradation concentration (DC50) worked out at 0.246 nM and the “Dmax (%)” value is 63.64%.

Consider `COC[C@H]1CN(C(=O)C2CCN(c3ccc4c(c3)N3C[C@H](C)CCCOc5c(cnn5C)-c5cc(cc(C)n5)C(=O)/N=C/3N4)CC2)CCN1c1cc(F)c([C@H]2CCC(=O)NC2=O)c(F)c1` [Example 363, (R)-3-(2,6-difluoro-4-((R)-2-(methoxymethyl)-4-(1-((R,E)-1^1,2^6,7-trimethyl-3-oxo-5^2,5^3-dihydro-1^1H,5^1H-11-oxa-4-aza-5(2,1)-benzo[d]imidazola-2(2,4)-pyridina-1(4,5)-pyrazolacycloundecaphane-5^6-yl)piperidine-4-carbonyl)piperazin-1-yl)phenyl)piperidine-2,6-Dione], for which, on L858R/T790M/C797S EGFR, the DC50 was 0.643 nM and the Dmax turned out to be 87.5%. Further, in the test on Del19/T790M/C797S EGFR, half-maximal degradation (DC50) was put at 0.614 nM and the “Dmax (%)” value was found to be 78.54%.

On to `Cc1cc2cc(n1)-c1cnn(C)c1OCC[C@H]1C[C@@H]1CN1/C(=N/C2=O)Nc2ccc(N3CCN([C@H]4C[C@H](Nc5cc(F)c([C@H]6CCC(=O)NC6=O)c(F)c5)C4)CC3)cc21` (single isomer, unassigned) [Example 443], for which, on L858R/T790M/C797S EGFR, the DC50 stood at 1.25 nM and the Dmax amounted to 86.6%. Besides, in the test with Del19/T790M/C797S EGFR, the DC50 amounted to 0.633 nM and the “Dmax (%)” value came to 78.26%.

Consider `Cc1cc2cc(n1)-c1cnn(C)c1OCCC[C@@H](C)CN1/C(=N/C2=O)Nc2ccc(C(=O)N(C)[C@@H]3CCN(CCc4cc(F)c([C@H]5CCC(=O)NC5=O)c(F)c4)C3)cc21` [Example 291, (R,E)-N—((R)-1-(4-((R)-2,6-dioxopiperidin-3-yl)-3,5-difluorophenethyl)pyrrolidin-3-yl)-N,1^1,2^6,7-tetramethyl-3-oxo-5^2,5^3-dihydro-1^1H,5^1H-11-oxa-4-aza-5(2,1)-benzo[d]imidazola-2(2,4)-pyridina-1(4,5)-pyrazolacycloundecaphane-5^6-carboxamide], for which, on L858R/T790M/C797S EGFR, the DC50 was found to be 0.63 nM and the maximal degradation (Dmax) amounted to 79%. In the test on Del19/T790M/C797S EGFR, it took 0.513 nM to reach half-maximal degradation (DC50) and the “Dmax (%)” value turned out to be 72.04%.

At L858R/T790M/C797S EGFR, `Cc1cc2cc(n1)-c1cnn(C)c1OCCC[C@@H](C)CN1/C(=N/C2=O)Nc2ccc(CN3CCN(C(=O)[C@@H]4CCN(c5cc(F)c([C@H]6CCC(=O)NC6=O)c(F)c5)C4)C[C@H]3C)cc21` [Example 100, (R)-3-(2,6-difluoro-4-((R)-3-((R)-3-methyl-4-(((R,E)-1^1,2^6,7-trimethyl-3-oxo-5^2,5^3-dihydro-1^1H,5^1H -11-oxa-4-aza-5(2,1)-benzo[d]imidazola-2(2,4)-pyridina-(4,5)-pyrazolacycloundecaphane-5^6-yl)methyl)piperazine-1-carbonyl)pyrrolidin-1-yl)phenyl)piperidine-2,6-dione] displayed a DC50 of 1 nM and a Dmax of 85.5%. Besides, in the test on Del19/T790M/C797S EGFR, the DC50 amounted to 0.7 nM and the “Dmax (%)” value is on record as 72.8%.

On to `Cc1cc2cc(n1)-c1cnn(C)c1OCCC[C@@H](C)CN1/C(=N/C2=O)Nc2ccc(CN3CCN(C(=O)[C@@H]4CCN(c5cc(F)c([C@H]6CCC(=O)NC6=O)c(F)c5)C4)CC3)c(F)c21` [Example 59, (R)-3-(2,6-difluoro-4-((R)-3-(4-(((R,E)-5^7-fluoro-1^1,2^6,7-trimethyl-3-oxo-5^2,5^3-dihydro-1^1H,5^1H-11-oxa-4-aza-5(2,1)-benzo[d]imidazola-2(2,4)-pyridina-1(4,5)-pyrazolacycloundecaphane-5^6-yl)methyl)piperazine-1-carbonyl)pyrrolidin-1-yl)phenyl)piperidine-2,6-dione], for which, on L858R/T790M/C797S EGFR, half-maximal degradation (DC50) was put at 2.92 nM and the Dmax was found to be 82%. In the test with Del19/T790M/C797S EGFR, half-maximal degradation (DC50) was put at 1.48 nM and the “Dmax (%)” value stood at 78.58%.

On L858R/T790M/C797S EGFR, `Cc1cc2cc(n1)-c1cnn(C)c1OCCC[C@@H](C)CN1/C(=N/C2=O)Nc2ccc(C(=O)N[C@H]3CCN(CCc4cc(F)c([C@H]5CCC(=O)NC5=O)c(F)c4)CC3(C)C)cc21` [Example 261, (R,E)-N—((S)-1-(4-((R)-2,6-dioxopiperidin-3-yl)-3,5-difluorophenethyl)-3,3-dimethylpiperidin-4-yl)-1^1,2^6,7-trimethyl-3-oxo-5^2,5^3-dihydro-1^1H,5^1H-11-oxa-4-aza-5(2,1)-benzo[d]imidazola-2(2,4)-pyridina-1(4,5)-pyrazolacycloundecaphane-5^6-carboxamide] displayed a DC50 of 0.51 nM and a Dmax of 91.8%. Moreover, in the test with Del19/T790M/C797S EGFR, the DC50 came out at 0.621 nM and the “Dmax (%)” value is recorded as 83.61%.

On to `Cc1cc2cc(n1)-c1cnn(C)c1OCCC[C@@H](C)CN1/C(=N/C2=O)Nc2ccc(C(=O)N(C)[C@H]3CCN(CCc4cc(F)c([C@H]5CCC(=O)NC5=O)c(F)c4)C[C@H]3C)cc21` [Example 256, (R,E)-N-((3R,4S)-1-(4-((R)-2,6-dioxopiperidin-3-yl)-3,5-difluorophenethyl)-3-methylpiperidin-4-yl) -N,1^1,2^6,7-tetramethyl-3-oxo-5^2,5^3-dihydro-1^1H,5^1H-11-oxa-4-aza-5(2,1)-benzo[d]imidazola-2(2,4)-pyridina-1(4,5)-pyrazolacycloundecaphane-5^6-carboxamide], for which, at L858R/T790M/C797S EGFR, the DC50 turned out to be 0.326 nM and the Dmax was found to be 88.1%. In the test on Del19/T790M/C797S EGFR, the DC50 is 0.608 nM and the “Dmax (%)” value turned out to be 83.08%.

Usually DC50 stands for the midpoint of the concentration-degradation curve. A higher DC50 goes with degradation only at high concentration. The term Dmax denotes the greatest extent of degradation seen. Read a low Dmax as shallow degradation.
